According to patent US5739302A, “Manufacture and use of novel glycosides of catechol estrogens” (priority 1991, dated 1998):
In brackets after ≈: the same amount, converted by molar mass. Where two headings read alike, the source gives them in different places.

How the values were obtained:
[1] = Solubility in water; type: physicochemical
Description: For example, the volume of water required to dissolve 1 mg of various glycosides is as following; 2 to 3 ml for 17-glucoside, 2 ml for 17-maltoside, 0.7 ml for 2-glucoside, and 3 ml for 3-glucoside, while 1 mg of 2-hydroxyestradiol cannot be dissolved in 3 ml of water. Accordingly, the glycosides obtained in the present invention provide a way to prepare an injection containing the same.

[2] = test system: rat brain homogenate; assay: Inhibitory effect on the lipid peroxidation of rat brain homogenate (thiobarbituric acid method); type: biochemical; conditions: for amount of lipid peroxides in terms of malondialdehyde: 37° C.
Description: (Inhibitory effect of 2-hydroxyestradiol 2-glucoside on the lipid peroxidation of rat brain homogenate)
2-Hydroxyestradiol 2-(β-D-glucopyranoside) (2-OHE2 2-Glu) obtained according to the method of this invention (Example 16) was dissolved in water to give a concentration of 1 mM or 0.5 mM. The reaction mixture contains the followings in a final volume of 2 ml; 1.98 ml of rat brain homogenate (10 mg protein/ml) and 2-OHE2 2-Glu at a concentration of 5 μM or 10 μM. After incubation at 37° C., lipid peroxide level was determined by the thiobarbituric acid method.
Values in Table 2 indicate the amount of lipid peroxides (nmol/mg protein
in terms of malondialdehyde.

[3] = test system: rat liver homogenate; assay: Inhibitory effect on the lipid peroxidation of rat liver homogenate (thiobarbituric acid method); type: biochemical; conditions: 10 μM; 4 hours at 37° C.
Description: (Inhibitory effect of 2-hydroxyestradiol 2-glucoside on the lipid peroxidation of rat liver homogenate)
A rat liver homogenate was prepared in 4 volume of 0.15M KCl .2-OHE2 2-Glu was dissolved in distilled water and 2-OHE2, in 1% DMSO, to give a final concentration of 1 mM. The reaction mixture contained the followings in a final volume of 2 ml; 1.98 ml of rat liver homogenate (10 mg protein/ml) and 10 μM either 2-PHE2 2-Glu or 2-OHE2. As blank tests, the same volume of distilled water or 1% DMSO was added in place of 2-OHE2 2-Glu or 2-OHE2. After incubation for 4 hours at 37° C., lipid peroxide level was determined by the thiobarbituric acid method.

[4] = Acute toxicity (intraperitoneal injection); type: in vivo, mouse; conditions: mouse, in vivo, ip; male ddY mice, intraperitoneal; 2 weeks
Description: (§1) Male mice of ddY strain were received 2-OHE2 17-Glu or 2-OHE2 2-Glu by an intraperitoneal injection at doses of 250 mg, 500 mg, 750 mg, or 1000 mg/kg body weight.

[5] = test system: Male mice of ddY strain; assay: Acute toxicity (intraperitoneal injection); type: in vivo, mouse; conditions: 250, 500, 750 or 1000 mg/kg i.p.; observation period of 2 weeks
Description: as §1

[6] = test system: low-density lipoprotein (LDL); assay: Inhibitory effect on the lipid peroxidation of low-density lipoprotein (CuSO4-induced; methylene blue method); type: biochemical, rabbit (hypercholesterolemic); conditions: for amount of lipid peroxides: LDL + CuSO4, 5 nmol compound in 1 ml
Description: (Inhibitory effect of 2-hydroxyestradiol 17-glucoside on the lipid peroxidation of low-density lipoprotein)
Low-density lipoprotein (LDL) was prepared from hypercholesterolemic rabbit serum. 2-Hydroxyestradiol 17-(β-D-glucopyranoside) (2-OHE2 17-Glu) obtained according to the method of this invention (Example 4 ) was dissolved in distilled water and 2-hydroxyestradiol (2-OHE2) as a reference compound, in dimethylsulfoxide (DMSO), to give a final concentration of 500 μM. The reaction mixture contained the followings in a final volume of 1 ml: 500 μg of LDL; 5 nmol of CuSO4; and 5 nmol of either 2-OHE2 17-Glu or 2-OHE2. As blank tests, distilled water or DMSO was added in place of 2-OHE2 17-Glu or 2-OHE2. After incubation for a definite time at […], the amount of lipid hydroperoxides generated was determined by the methylene blue method.
Values in TABLE 1 indicate the amount of lipid peroxides (nmol/mg

[7] = test system: red blood cells; assay: Incorporation of glycosides of 2-hydroxyestradiol into red blood cells; type: in vitro ADME
Description: (§2) (Incorporation of glycosides of 2-hydroxyestradiol into red blood cells)
(§3) The reaction mixture contained 0.2 nmol of 2-OHE2, 2-OHE2 17-Glu, or 2-hydroxyestradiol 17-(β-maltoside) (2-OHE2 17-Mal, obtained in Example 5) in 0.1 ml of 0.2% DMSO-0.1% ascorbic acid in phosphate buffered saline (PBS) and 0.9 ml of suspension of red blood cells in PBS. After incubation at 37° C. for several intervals, the mixture was centrifuged and supernatant fraction was obtained, and then the amount of each glycoside of 2-hydroxyestradiol remained in the supernatant was determined by HPLC.
(§4) Values in Table 3 indicate residual amount (%) in the incubation medium.

[8] = as above; type: in vitro ADME; conditions: red blood cell suspension, 0.2 nmol compound, 37° C., read-out: residual amount in the incubation medium
Description: as §2, §3, §4

Structure (SMILES)	solubility [1]	solubility ([1]; water)	inhibition of the lipid peroxidation [3]	LD50 at 336 h [4]	abnormal symptoms (in words) [5]	survival (in words) [5]	amount of lipid peroxides ([6]; incubation 1 hr)	amount of lipid peroxides ([6]; incubation 2 hr)	amount of lipid peroxides ([6]; incubation 3 hr)	amount of lipid peroxides ([6]; incubation 4 hr)	incorporation into red blood cells (in words) [7]	further results
C[C@]12CC[C@@H]3c4cc(O)c(O[C@@H]5O[C@H](CO)[C@@H](O)[C@H](O)[C@H]5O)cc4CC[C@H]3[C@@H]1CC[C@@H]2O [2-Hydroxyestradiol 3-(β-D-glucopyranoside)]	3 mL	0.333 mg/mL (≈ 740 µM)										
C[C@]12CC[C@@H]3c4cc(O[C@@H]5O[C@H](CO)[C@@H](O)[C@H](O)[C@H]5O)c(O)cc4CC[C@H]3[C@@H]1CC[C@@H]2O [2-OHE2 2-Glu, 2-Hydroxyestradiol 2-(β-D-glucopyranoside)]	0.5 to 1 mL	1.43 mg/mL (≈ 3170 µM)	77%	> 100 mg/kg	no abnormal symptom was found	All mice survived						inhibition of the lipid peroxidation (in words) ([2]; 5 μM and 10 μM): strongly inhibited the lipid peroxidation in a concentration dependent manner; amount of lipid peroxides in terms of malondialdehyde ([2]; 5 μM, incubation 0 hr): 0.271 nmol/mg protein; amount of lipid peroxides in terms of malondialdehyde ([2]; 5 μM, incubation 1 hr): 1.124 nmol/mg protein; amount of lipid peroxides in terms of malondialdehyde ([2]; 5 μM, incubation 2 hr): 1.867 nmol/mg protein; amount of lipid peroxides in terms of malondialdehyde ([2]; 5 μM, incubation 4 hr): 3.167 nmol/mg protein; amount of lipid peroxides in terms of malondialdehyde ([2]; 10 μM, incubation 0 hr): 0.271 nmol/mg protein; amount of lipid peroxides in terms of malondialdehyde ([2]; 10 μM, incubation 1 hr): 0.905 nmol/mg protein; amount of lipid peroxides in terms of malondialdehyde ([2]; 10 μM, incubation 2 hr): 1.326 nmol/mg protein; amount of lipid peroxides in terms of malondialdehyde ([2]; 10 μM, incubation 4 hr): 1.534 nmol/mg protein
C[C@]12CC[C@@H]3c4cc(O)c(O)cc4CC[C@H]3[C@@H]1CC[C@@H]2O[C@@H]1O[C@H](CO)[C@@H](O)[C@H](O)[C@H]1O [2-OHE2 17-Glu, 2-Hydroxyestradiol 17-(β-D-glucopyranoside)]	2 to 3 mL	0.333 to 0.5 mg/mL (≈ 740 to 1110 µM)		> 100 mg/kg	no abnormal symptom was found	All mice survived	8.93 nmol/mg protein	19.48 nmol/mg protein	24.76 nmol/mg protein	32.17 nmol/mg protein	markedly retarded as compared with that of 2-OHE2	inhibitory potency on LDL peroxidation (in words) ([6]; compared with 2-OHE2): the same to that of 2-OHE2; inhibition of the peroxidation of LDL (in words) ([6]; in words): clearly inhibited the peroxidation of LDL
C[C@]12CC[C@@H]3c4cc(O)c(O)cc4CC[C@H]3[C@@H]1CC[C@@H]2O[C@@H]1O[C@H](CO)[C@@H](O[C@H]2O[C@H](CO)[C@@H](O)[C@H](O)[C@H]2O)[C@H](O)[C@H]1O [2-OHE2 17-Mal, 2-hydroxyestradiol 17-(β-maltoside)]	2 mL	0.5 mg/mL (≈ 816 µM)									markedly retarded as compared with that of 2-OHE2	
C[C@]12CC[C@@H]3c4cc(O)c(O)cc4CC[C@H]3[C@@H]1CC[C@@H]2O [Example 2-OHE2, 2-hydroxyestradiol, reference compound]			73%				17.45 nmol/mg protein	24.55 nmol/mg protein	27.29 nmol/mg protein	30.74 nmol/mg protein		remaining at 0.5 min ([8]; 0.5 min): 4.4%; remaining at 1 min ([8]; 1.0 min): 4.4%; remaining at 2 min ([8]; 2.0 min): 3.7%; solubility ([1]; per 1 mg, water, read-out: volume of water required to dissolve 1 mg): < 0.333 mg/mL
